Test results reported in the supplement of paper PMC9938120.

What was measured:
Assay in all cases: drug sensitivity score (DSS3, normalised partial AUC of % inhibition dose-response) (DSS (score)); higher = more sensitive (stronger inhibition of viability); extreme values may be limits of the assay
FMOC02_1 = patient-derived low-grade serous ovarian cancer cells; conditions: 72 h; library: FO5A; assay format: 2D, 384-well, CellTiter-Glo
How it was run: (§1)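 Patient-derived ovarian cancer cells (early passage, under 10) were dispensed onto 384-well flat clear-bottom plates pre-plated with compounds at five concentrations covering a 10,000-fold range. Plates were incubated 72 h at 37 °C, 5% CO2, and viability was read with CellTiter-Glo. Data were processed in Breeze. The drug sensitivity score (DSS3) is a partial area under the percent-inhibition dose-response curve, divided by the log of the upper asymptote; higher means more sensitive.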

FMOC02_2 = patient-derived low-grade serous ovarian cancer cells; conditions: 72 h; library: FO5A; assay format: 2D, 384-well, CellTiter-Glo
How it was run: as §1

FMOC02_3 = patient-derived low-grade serous ovarian cancer cells; conditions: 72 h; library: FO5A; assay format: 2D, 384-well, CellTiter-Glo
How it was run: as §1

FMOC03 = patient-derived mucinous ovarian cancer cells; conditions: 72 h; library: FO5A; assay format: 2D, 384-well, CellTiter-Glo
How it was run: as §1

FMOC04 = patient-derived high-grade serous ovarian cancer cells; conditions: 72 h; library: FO5A; assay format: 2D, 384-well, CellTiter-Glo
How it was run: as §1

FMOC06 = patient-derived mucinous ovarian cancer cells; conditions: 72 h; library: FO5A; assay format: 2D, 384-well, CellTiter-Glo
How it was run: as §1

FMOC09 = patient-derived high-grade serous ovarian cancer cells; conditions: 72 h; library: FO5A; assay format: 2D, 384-well, CellTiter-Glo
How it was run: as §1

FMOC11 = patient-derived high-grade serous ovarian cancer cells; conditions: 72 h; library: FO5A; assay format: 2D, 384-well, CellTiter-Glo
How it was run: as §1

FMOC14 = patient-derived high-grade serous ovarian cancer cells; conditions: 72 h; library: FO5A; assay format: 2D, 384-well, CellTiter-Glo
How it was run: as §1

FMOC17 = patient-derived low-grade serous ovarian cancer cells; conditions: 72 h; library: FO5A; assay format: 2D, 384-well, CellTiter-Glo
How it was run: as §1

FMOC22 = patient-derived mucinous ovarian cancer cells; conditions: 72 h; library: FO5A; assay format: 2D, 384-well, CellTiter-Glo
How it was run: as §1

FMOC24 = patient-derived high-grade serous ovarian cancer cells; conditions: 72 h; library: FO5A; assay format: 2D, 384-well, CellTiter-Glo
How it was run: as §1

FMOC25_1 = patient-derived low-grade serous ovarian cancer cells; conditions: 72 h; library: FO4B; assay format: 2D, 384-well, CellTiter-Glo
How it was run: as §1

FMOC25_2 = patient-derived low-grade serous ovarian cancer cells; conditions: 72 h; library: FO5A; assay format: 2D, 384-well, CellTiter-Glo
How it was run: as §1

FMOC27 = patient-derived low-grade serous ovarian cancer cells; conditions: 72 h; library: FO5A; assay format: 2D, 384-well, CellTiter-Glo
How it was run: as §1

FMOC28 = patient-derived low-grade serous ovarian cancer cells; conditions: 72 h; library: FO5A; assay format: 2D, 384-well, CellTiter-Glo
How it was run: as §1

Structure (SMILES)	drug sensitivity score (FMOC02_1)	drug sensitivity score (FMOC02_2)	drug sensitivity score (FMOC02_3)	drug sensitivity score (FMOC03)	drug sensitivity score (FMOC04)	drug sensitivity score (FMOC06)	drug sensitivity score (FMOC09)	drug sensitivity score (FMOC11)	drug sensitivity score (FMOC14)	drug sensitivity score (FMOC17)	drug sensitivity score (FMOC22)	drug sensitivity score (FMOC24)	drug sensitivity score (FMOC25_1)	drug sensitivity score (FMOC25_2)	drug sensitivity score (FMOC27)	drug sensitivity score (FMOC28)
CC[C@H](C)C(=O)O[C@H]1C[C@@H](C)C=C2C=C[C@H](C)[C@H](CC[C@@H]3C[C@@H](O)CC(=O)O3)[C@H]21 [Lovastatin]	0	0.3	3.9	0.5	0	0.9	3.3	1.3	0	1.1	2.1	2.5	0	1	0	0.1
CNC(=O)c1cccc2cc(Oc3ccnc4cc(OCC5(N)CC5)c(OC)cc34)ccc12 [Lucitanib]	2.6	0.4	1.7	0.1	0.4	0.3	1.2	1.1	0	0.2	0.2	1.45	0.3	1.4	1.4	4.1
O=C(O)CC[C@H]1CC[C@@](c2cc(F)ccc2F)(S(=O)(=O)c2ccc(Cl)cc2)CC1 [MK-0752]	0	0	0.7	0	0	0.3	0	0	0	0	0	0	0	0	0	0.2
NC1(c2ccc(-c3nc4ccn5c(=O)[nH]nc5c4cc3-c3ccccc3)cc2)CCC1 [MK-2206]	4.9	7.5	6.9	2.5	1.75	4.8	2.7	0.9	2	4.2	0.8	1.5	4.9	3	1.5	5.5
O=C(c1cccc(Cl)c1F)N1CCN(Cc2cccc(Nc3nccs3)n2)CC1 [MK-8745]	7.1	6.1	5.7	1.3	1.3	0	0.2	4	0.2	2.1	1.8	0.2	0	4	0	5.8
Cn1cc(-c2cnn3c(N)c(Br)c([C@@H]4CCCNC4)nc23)cn1 [MK-8776]	2	0	1.5	0	2.45	0	0	2.4	0.9	0.6	0	0.3	1.4	2.8	0	2.5
Cc1cnc(-c2ccccc2C(C)C)nc1NCc1ccc(-n2ccnn2)cc1 [ML323]	0.1	3.1	0.2	0.9	0	0	0	0	0	0	0.3	0.8	0.6	1.7	0.6	0.9
CNC(=O)[C@@H](NC(=O)[C@H](CC(C)C)[C@H](O)C(=O)NO)C(C)(C)C [Marimastat]	0.9	0	0	0	0	0	0.1	0.4	0	0	0	0	0.6	3.6	0	0
Cc1ccc(NC(=O)c2ccc(CN3CCN(C)CC3)cc2)cc1Nc1nc(-c2cccnc2)cs1 [Masitinib]	2.8	2.4	4.8	3.6	0.9	4.4	2.7	3.9	5.4	4.2	2.6	5.6	2.2	3.9	0	1.2
CC(=O)O[C@]1(C(C)=O)CC[C@H]2[C@@H]3C=C(C)C4=CC(=O)CC[C@]4(C)[C@H]3CC[C@@]21C [Megestrol acetate]	0.3	0	0	0.2	0	0.4	0	0	0	0	0	0	0	0	4.6	1
Cc1ccc(C(=O)Nc2ccc(Oc3cc4cnn(C)c4cc3-c3cn[nH]c3)c(F)c2)c(=O)n1-c1ccc(F)cc1 [Merestinib]	1.1	1.9	4.4	1.3	0	1.1	1.6	0	0	0.3	0	1.15	2.7	4	0	1.4
CN(C)C(=N)NC(=N)N [Metformin]	0	0	0	0	0	0	0	0	0	0	0	0	0	0	0	0
C[C@H]1C[C@@H]2[C@H]([C@@H](O)C[C@@]3(C)[C@H]2CC[C@]3(O)C(=O)CO)[C@@]2(C)C=CC(=O)C=C12 [Methylprednisolone]	0	0	0	0	0	0.1	0.1	0.6	0	0	0	0	0	0	0	0
CO[C@@]12[C@H](COC(N)=O)C3=C(C(=O)C(C)=C(N)C3=O)N1C[C@@H]1N[C@@H]12 [Mitomycin C]	0	0	1.9	0	0	0	2.7	1.6	0	0	0	0.45	3.6	3.7	0.1	0.8
Clc1ccc(C(c2ccccc2Cl)C(Cl)Cl)cc1 (centres undefined) [Mitotane]	0	0	0	0	0	0	0	0	0	0	0	0	0	0	0	0
CC1(C)CNc2cc(NC(=O)c3cccnc3NCc3ccncc3)ccc21 [Motesanib]	0	0.5	2.9	0	0	1.1	0	0.2	0	0	0	0.15	1	0.1	0.6	2.4
FC(F)(F)c1ccc(/C=C/c2nc(COc3ccc(CCCCn4ccnn4)cc3)co2)cc1 [Mubritinib]	0	0	0	3.9	0	0.6	0	0.6	0.7	0	3	0	0.1	1.1	1.7	0
COc1nc(N)nc2c1ncn2[C@@H]1O[C@H](CO)[C@@H](O)[C@@H]1O [Nelarabine]	0	0	0	0	0	1.7	0	0	0	0	0	1.75	0	0	0	0
Cc1cn(-c2cc(NC(=O)c3ccc(C)c(Nc4nccc(-c5cccnc5)n4)c3)cc(C(F)(F)F)c2)cn1 [Nilotinib]	3	1.3	0	3.5	0	3.4	0.7	4.6	0.9	2.4	1	3.7	3.4	1.5	2.3	5.6
CC1(C)NC(=O)N(c2ccc([N+](=O)[O-])c(C(F)(F)F)c2)C1=O [Nilutamide]	0	0	0	0	0	0	0	0	0	0.5	0	0.65	0	0	0.1	0
NC(=O)c1cccc2cn(-c3ccc([C@@H]4CCCNC4)cc3)nc12 [Niraparib]	4.2	2.6	6.6	0	0.55	1.5	1.6	1.4	0	0	1.9	5.55	1.5	4.8	3.2	5.4
CNC(=O)c1ccc2cc([C@@]3(O)CCn4cncc43)ccc2c1 [Orteronel]	0	0	0	0	0	0	0	0	0	0	0	0	0	1.4	0	0.2
C=CCc1cccc(/C=N/NC(=O)CN2CCN(Cc3ccccc3)CC2)c1O [PAC-1]	0	3.6	0	5.6	0	3.7	4.8	3.1	5	1.3	3.5	1.2	0.4	2.1	0	7.1
O=C(Nc1cccnc1)N1CCC(Cc2cccc(Oc3ccc(C(F)(F)F)cn3)c2)CC1 [PF-3845]	1.1	3.3	1.2	2.3	0	0.1	0	0	0	1.6	1.5	0.4	1.7	0	1.9	2.5
